Experimental data as given in patent publication EP4755396A1, “TREATMENT OF P53 GENE MUTATION OR DEFECT NEGATIVE CANCER AND TUMOR PATIENTS” (Ascentawits Pharmaceuticals, Ltd., priority 2023, dated 2025).
Read-outs that look alike come from different tables or passages of the source. Peptide text beside a SMILES is read from it. * marks the point of attachment. Cbz = O=C(OCc1ccccc1)*

Experiments:
[1] = tested on: RAD51 protein in H460 cells; assay: WB detection of RAD51 protein amount, degradation and half-life; format: cell-based; details: 0.1-1 nM AST-3424, 5 µM Nutlin-3, 5 µM MG-132, 24 hours (Figures 14-17)
Procedure: In the first, the second and the third experiments of the effect of AST-3424 in combination with Nutlin-3 on Ser15-p53, Ser20-p53, Total p53, MDM2 and p21 proteins in H460 cells in example 5, the applicant also performed WB detection of RAD51 protein, with the results shown in Figures 14, 15 and 16.
• 1) H460 cell suspension was added to a 24-well plate, with a cell density of 100000 /well and 995 µL of medium per well. • 2) The cells were cultured overnight in an incubator at 37°C, 5% CO2. • 3) Compound Treatment
Monotherapy: After 24 hours of cell plating, each well was supplied with 5µL of test compounds at different concentrations: 1% DMSO, 0.1nM AST-3424 and 5 µM Nutlin-3, shaken gently to ensure even mixing, and then placed at 37°C, 5% CO2 in an incubator. After continuing culture for 24 hours, the cells were collected.
Combination therapy: After 24 hours of cell plating, • Adding 0.1 nM AST-3424 for pre-treatment for 2 hours, and then adding 5 µM Nutlin-3 for co-treatment for 22 hours; • Adding 1% DMSO and 5 µM MG-132 for co-treatment for 24 hours; • Adding 0.1 nM AST-3424 and 5 µM MG-132 for co-treatment for 24 hours; • Adding 5 µM Nutlin-3 and 5 µM MG-132 for co-treatment for 24 hours; • Adding 0.1 nM AST-3424 for pre-treatment for 2 hour, and then adding 5 µM Nutlin-3 for treatment for 16 hours, and then adding 5µM MG-132 for co-treatment for 6 hours. […]

H460 cells = assay: In vitro cell proliferation inhibition under normoxia (96-well, CTG, 72 hours); format: cell-based, human; details: for inhibition at 0.025 µM / inhibition at 0.05 µM: NCI-H460, H460 cells; for inhibition at 0.025 µM: RITA 0.025 µM; for inhibition at 0.05 µM: RITA 0.05 µM
Procedure: Overview of the experimental process • 1) H460 cell suspension was added to a 96-well plate at 100 µL per well, with a cell density of 2000 /well. • 2) The cells were cultured overnight in an incubator at 37°C, 5% CO2. • 3) Compound Treatment
Monotherapy: After 24 hours of cell plating, each well was supplied with 99.5 µL of growth medium then added with 0.5µL of test compounds at different concentrations, shaken gently to ensure even mixing, and then placed at 37°C, 5% CO2 in an incubator.
(§1) Combination therapy: After 24 hours of cell plating, each well was supplied with 99 µL of growth medium then added with 0.5µL of the combined action compound Nutlin-3, shaken gently to ensure even mixing, and then placed in an incubator for 2 hours. Then each well was added with 0.5µL of test compounds at different concentrations, shaken gently to ensure even mixing, and then placed at 37°C, 5% CO2 in an incubator.
(§2) 4) The cell plate was placed in the incubator for 72 hours.
(§3) 5) The cell plate to be tested was placed at room temperature to equilibrium for 30 minutes, and 100µL of medium was discarded per well.
(§4) 6) 25µL of CTG reagent was added to each well, placed at a fast shaker to shake for 2 minutes, and placed at room temperature away from light for 30 minutes.
(§5) 7) The chemiluminescence signal value was read using a multifunctional microplate reader with a reading time of 1000 ms.
8) IC50 was calculated with Graph Pad Prism 5 software.
(§6) • 1) H460 and HPAF-II cell suspensions were added to a 96-well plate at 100 µL per well, with a cell density of 2000 /well and 20000/well, respectively. • 2) The cells were cultured overnight in an incubator at 37°C, 5% CO2. • 3) Compound Treatment
(§7) Combination therapy: After 24 hours of cell plating, 99 µL of growth medium was supplied to each well. Each well was added with 0.5 µL of Nutlin-3 or RITA, shaken gently to ensure even mixing, and then placed in an incubator for 2 hours. Then each well was added with 0.5µL of test compounds at different concentrations, shaken gently to ensure even mixing, and then placed at 37°C, 5% CO2 in an incubator.
(§8) Monotherapy: After 24 hours of cell plating, 99.5 µL of growth medium was supplied to each well. Then each well was added with 0.5µL of test compounds at different concentrations, shaken gently to ensure even mixing, and then placed at 37°C, 5% CO2 in an incubator.
(§9) 7) The chemiluminescence signal value was read using a multifunctional microplate reader with a reading time of 1000 ms. The corresponding inhibition rate data were calculated.
(§10) • 1) NCI-H460, NCI-H460 P53KO # 1 cell suspensions were added to a 96-well plate at 100 µL per well, with a cell density of 2000 /well. • 2) The cells were cultured overnight in an incubator at 37°C, 5% CO2. • 3) Compound Treatment
as §1, with “plating,” for “plating, each well was supplied with”, “of” for “of growth”, “medium was supplied to each well. Each well was” for “medium then”, “of” for “of the”, “action compound,” for “action compound Nutlin-3,”
(§11) 8) The ICso (half maximal inhibitory concentration) values were calculated using GraphPad Prism 5 software.

HPAF-II cells = assay: In vitro cell proliferation inhibition (96-well, CTG, 72 hours); format: cell-based; details: Homo sapiens, HPAF-II cells, 72 hours; for inhibition at 2.5 µM: RITA 2.5 µM; for inhibition at 5 µM: RITA 5 µM
Procedure: as §6, §7, §8, §2, §3, §4, §9

H460 P53 KO #1 = assay: In vitro cell proliferation inhibition under normoxia, p53 knockout cells; format: cell-based, human
Procedure: The p53 CRISPR/Cas9 KO plasmid (human) and p53 HDR plasmid (human) were purchased from Santa Cruz Company to construct H460 P53 KO cell lines, namely p53 knockout (KnockOut) H460 cell lines. Three groups of H460 P53 KO cell lines were constructed with numbers of H460 P53 KO # 1, H460 P53 KO # 7, and H460 P53 KO # 12.
After co-incubation for 15 minutes, they were added dropwise to the culture medium and mixed well.
After 48 h, 2 µg/mL puromycin was added for screening.
When the cell colonies grew to a sufficient size, single colonies were picked and cultured.
When the cell number reached a sufficient quantity, samples were collected for WB identification of the colonies.
H460 P53 KO cell lines, i.e. H460 P53 KO # 1, H460 P53 KO # 7, H460 P53 KO # 12 cell lines were used in experiments, respectively.
as §10, §8
as §1, with “plating,” for “plating, each well was supplied with”, “of” for “of growth”, “medium was supplied to each well. Each well was” for “medium then”, “of” for “of the”, “action compound,” for “action compound Nutlin-3,”
as §2, §3, §4, §5, §11

In the case of `CC(C)C[C@@H](C=O)NC(=O)[C@H](CC(C)C)NC(=O)[C@H](CC(C)C)NC(=O)OCc1ccccc1` [MG-132] (Cbz-Leu-Leu-Leu-aldehyde), the “RAD51 protein amount (WB)” value [1] is reported as “reversed the downregulation of RAD51 protein”.
`OCc1ccc(-c2ccc(-c3ccc(CO)s3)o2)s1` [RITA] gave an inhibition at 0.025 µM (H460 cells; Homo sapiens, 72 hours, AST 0.5 nM, AST + RITA 0.5+0.025, read-out: Inhibition rate result, experimental group 1) of 22.3%, an inhibition at 0.05 µM (H460 cells; Homo sapiens, 72 hours, AST 0.5 nM, AST + RITA 0.5+0.05, read-out: Inhibition rate result, experimental group 2) of 22.4% and an inhibition at 0.025 µM (H460 cells; Homo sapiens, 72 hours, AST 1.5 nM, AST + RITA 1.5+0.025, read-out: Inhibition rate result, experimental group 3) of 22.3%. It also gave an inhibition at 0.05 µM (H460 cells; Homo sapiens, 72 hours, AST 1.5 nM, AST + RITA 1.5+0.05, read-out: Inhibition rate result, experimental group 4) of 22.4%, an inhibition at 2.5 µM (HPAF-II cells; AST 60 nM, AST + RITA 60+2.5, read-out: Inhibition rate, experimental group 1) of 2.86% and an inhibition at 5 µM (HPAF-II cells; AST 60 nM, AST + RITA 60+5, read-out: Inhibition rate, experimental group 2) of 5.56%. The inhibition at 2.5 µM (HPAF-II cells; AST 200 nM, AST + RITA 200+2.5, read-out: Inhibition rate, experimental group 3) was 2.86%, the inhibition at 5 µM (HPAF-II cells; AST 200 nM, AST + RITA 200+5, read-out: Inhibition rate, experimental group 4) was 5.56% and the inhibition at 2.5 µM (HPAF-II cells; AST 1667 nM, AST + RITA 1667+2.5, read-out: Inhibition rate, experimental group 5) was 2.86%. The inhibition at 5 µM (HPAF-II cells; AST 1667 nM, AST + RITA 1667+5, read-out: Inhibition rate, experimental group 6) was 5.56%, the inhibition at 2.5 µM (HPAF-II cells; AST 5000 nM, AST + RITA 5000+2.5, read-out: Inhibition rate, experimental group 7) was 2.86% and the inhibition at 5 µM (HPAF-II cells; AST 5000 nM, AST + RITA 5000+5, read-out: Inhibition rate, experimental group 8) was 5.56%.
In the case of `CN(C)C(=O)c1cccc(Oc2cc3c(cc2[N+](=O)[O-])OCCC3OP(=O)(N2CC2)N2CC2)c1` (centres unmarked) [Compound C], the IC50 (H460 cells; Homo sapiens, NCI-H460, 72 h, NCI-H460, normoxia, 72 hours, alone or with 3 µM AST-3021 as labelled (Example 13)) is reported as 0.00205 µM, the “Ratio, combination therapy/ monotherapy” value (H460 cells; IC50 ratio, NCI-H460, + 3 µM AST-3021 versus alone (Example 13)) is reported as 305.37 and the “Ratio, Compound C/AST-3424” value (H460 cells; IC50 ratio, NCI-H460, monotherapy) is reported as 4.77. The IC50 (H460 P53 KO #1; Homo sapiens, NCI-H460, 72 h, NCI-H460 P53KO # 1, normoxia, 72 hours, alone or with 3 µM AST-3021 as labelled (Example 13)) was 0.0361 µM, the “Ratio, combination therapy/ monotherapy” value (H460 P53 KO #1; IC50 ratio, NCI-H460 P53KO # 1, + 3 µM AST-3021 versus alone (Example 13)) was 43.24 and the “Ratio, Compound C/AST-3424” value (H460 P53 KO #1; IC50 ratio, NCI-H460 P53KO # 1, monotherapy) was 6.62. The “Ratio, knockout / wild” value (H460 P53 KO #1; IC50 ratio, NCI-H460 P53KO # 1 versus NCI-H460, monotherapy (Example 13)) was 17.60.
